In patent US20160346347A1 (Oculis ehf., priority 2015, published 2016):

Columns and labels:
[1] = assay type: physicochemical
Protocol: An excess amount of drug was added to aqueous solutions containing up to 20% (w/v) cyclodextrin. The solutions were sonicated at 40-50° C. for 45-60 minutes in sealed glass vials, and then allowed to cool to room temperature (22-23° C.). Small amount of solid drug was then added to each vial, the vial resealed and allowed to equilibrate under constant agitation and protected from light for 7 days at room temperature. When the solutions had reached equilibrium, they were filtered through a 0.45 μm membrane filter and analyzed by high pressure liquid chromatography. […] The complexation efficiency (CE) was determined from the slope of phase-solubility diagrams (plots of total solubility of the drug versus total CD concentration in mol/l) where S0 is the intrinsic solubility of the drug:
The mobile phase consisted of acetonitrile, methanol and water (60:20:20), the flow rate was 1 ml/min, the column oven temperature was 80° C. and the detection wavelength was 205 nm.

[2] = in water (β-cyclodextrin: pure water at room temperature); cited from earlier work

OC[C@H]1O[C@@H]2O[C@H]3[C@H](O)[C@@H](O)[C@@H](O[C@H]4[C@H](O)[C@@H](O)[C@@H](O[C@H]5[C@H](O)[C@@H](O)[C@@H](O[C@H]6[C@H](O)[C@@H](O)[C@@H](O[C@H]7[C@H](O)[C@@H](O)[C@@H](O[C@H]8[C@H](O)[C@@H](O)[C@@H](O[C@H]1[C@H](O)[C@H]2O)O[C@@H]8CO)O[C@@H]7CO)O[C@@H]6CO)O[C@@H]5CO)O[C@@H]4CO)O[C@@H]3CO [β-Cyclodextrin]
CE (complexation efficiency) [1]: 0.030 | aqueous solubility of the cyclodextrin [2]: 2 % (w/v)

OC[C@H]1O[C@@H]2O[C@H]3[C@H](O)[C@@H](O)[C@@H](O[C@H]4[C@H](O)[C@@H](O)[C@@H](O[C@H]5[C@H](O)[C@@H](O)[C@@H](O[C@H]6[C@H](O)[C@@H](O)[C@@H](O[C@H]7[C@H](O)[C@@H](O)[C@@H](O[C@H]1[C@H](O)[C@H]2O)O[C@@H]7CO)O[C@@H]6CO)O[C@@H]5CO)O[C@@H]4CO)O[C@@H]3CO [α-Cyclodextrin]
CE (complexation efficiency) [1]: 0.54 | Solubility in the presence of 5% (w/v) cyclodextrin [1]: 760 ± 16 µg/mL | aqueous solubility of the cyclodextrin [2]: 13 % (w/v)

OC[C@H]1O[C@@H]2O[C@H]3[C@H](O)[C@@H](O)[C@@H](O[C@H]4[C@H](O)[C@@H](O)[C@@H](O[C@H]5[C@H](O)[C@@H](O)[C@@H](O[C@H]6[C@H](O)[C@@H](O)[C@@H](O[C@H]7[C@H](O)[C@@H](O)[C@@H](O[C@H]8[C@H](O)[C@@H](O)[C@@H](O[C@H]9[C@H](O)[C@@H](O)[C@@H](O[C@H]1[C@H](O)[C@H]2O)O[C@@H]9CO)O[C@@H]8CO)O[C@@H]7CO)O[C@@H]6CO)O[C@@H]5CO)O[C@@H]4CO)O[C@@H]3CO [γ-Cyclodextrin]
CE (complexation efficiency) [1]: 0.0049 | Solubility in the presence of 5% (w/v) cyclodextrin [1]: 62 ± 0.6 µg/mL | Solubility in the presence of 15% (w/v) cyclodextrin [1]: 110 ± 1.5 µg/mL | aqueous solubility of the cyclodextrin [2]: 25 % (w/v)

2-Hydroxypropyl-α-cyclodextrin
CE (complexation efficiency) [1]: 0.031 | Solubility in the presence of 5% (w/v) cyclodextrin [1]: 84 µg/mL | Solubility in the presence of 15% (w/v) cyclodextrin [1]: 460 µg/mL

2-Hydroxypropyl-γ-cyclodextrin
CE (complexation efficiency) [1]: 0.0011 | Solubility in the presence of 5% (w/v) cyclodextrin [1]: 48 ± 4 µg/mL | Solubility in the presence of 15% (w/v) cyclodextrin [1]: 62 ± 5 µg/mL

Randomly methylated β-cyclodextrin
CE (complexation efficiency) [1]: 0.053 | Solubility in the presence of 5% (w/v) cyclodextrin [1]: 130 µg/mL
